In assay [1] the target is T1, human recombinant histamine H1 receptor (Homo sapiens, UniProt P35367).
T1 construct: expressed in transfected cells; host or cells: CHO-K1
As to the kind of experiment: Histamine H1 radioligand binding ([3H]Pyrilamine). Particulars: 1.2 nM [3H]Pyrilamine; for Histamine Binding (0.1 μM) H1, percentage inhibition / inhibition at 0.1 µM: compound at 0.1 μM; for inhibition at 0.1 µM: read-out: Histamine Binding (0.1 μM) H1, percentage inhibition. How it is done:
To evaluate in radioligand binding assays the activity of compounds of the invention, human recombinant histamine H1 receptor expressed in Chinese hamster ovary (CHO) K1 cells (De Backer, M. et al, Biochem. Biophys. Res. Comm. 197(3):1601, 1993) in a modified Tris-HCl buffer (50 mM Tris-HCl, pH 7.4, 2 mM MgCl2, 100 mM NaCl, 250 mM Sucrose) was used. Compounds of the invention were incubated with 1.2 nM [^3H]Pyrilamine for 180 min. at 25° C. Non-specific binding was estimated in the presence of 1 μM Pyrilamine. Receptor proteins were filtered and washed, the filters were then counted to determine [^3H]Pyrilamine specifically bound. Compounds were screened at 1 μM or lower, using 1% DMSO as vehicle. Biochemical assay results are presented as the percent inhibition of specific binding in Table 2.

The target of assay [2] is T2, human recombinant serotonin (5-Hydroxytryptamine) 5-HT5A receptor (Homo sapiens, UniProt P47898).
T2 construct: expressed in transfected cells; host or cells: CHO-K1
T2 sequence (P47898 whole entry): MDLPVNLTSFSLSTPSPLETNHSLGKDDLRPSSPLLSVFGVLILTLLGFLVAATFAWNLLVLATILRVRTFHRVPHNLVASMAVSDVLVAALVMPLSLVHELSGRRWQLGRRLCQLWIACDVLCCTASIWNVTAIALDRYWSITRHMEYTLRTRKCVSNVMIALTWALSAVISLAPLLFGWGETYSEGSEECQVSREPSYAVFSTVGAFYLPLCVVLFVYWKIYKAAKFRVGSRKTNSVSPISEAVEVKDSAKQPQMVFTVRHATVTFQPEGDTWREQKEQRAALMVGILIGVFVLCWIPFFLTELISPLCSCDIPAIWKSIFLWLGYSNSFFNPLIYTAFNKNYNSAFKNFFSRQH
As to the kind of experiment: Serotonin 5-HT5A radioligand binding ([3H]LSD). The conditions noted are these: compound at 0.1 μM; for inhibition at 0.1 µM: read-out: Serotonin (0.1 μM) 5-HT5A, percentage inhibition of ligand binding. As for the experimental part:
To evaluate in radioligand binding assays the activity of compounds of the invention, human recombinant serotonin (5-Hydroxytryptamine) 5-HT5A receptor expressed in Chinese hamster ovary (CHO)-K1 cells (Rees, S. et al, FEBS Lett. 355:242, 1994) in a modified Tris-HCl buffer (50 mM Tris-HCl, pH 7.4, 10 mM MgCl2, 0.5 mM EDTA) was used. Compounds of the invention were incubated with 1.7 nM [^3H]Lysergic acid diethylamide (LSD) for 60 min. at 37° C. Non-specific binding was estimated in the presence of 100 μM Serotonin (5-HT). Receptor proteins were filtered and washed, the filters were counted to determine [^3H]LSD specifically bound. Compounds were screened at 1 μM or lower, using 1% DMSO as vehicle. Biochemical assay results are presented as the percent inhibition of specific binding in Table 4.

The target of assay [3] is T3, human recombinant serotonin (5-Hydroxytryptamine) 5-HT2A receptor (Homo sapiens, UniProt P28223).
T3 construct: expressed in transfected cells; host or cells: CHO-K1
T3 sequence (P28223 whole entry): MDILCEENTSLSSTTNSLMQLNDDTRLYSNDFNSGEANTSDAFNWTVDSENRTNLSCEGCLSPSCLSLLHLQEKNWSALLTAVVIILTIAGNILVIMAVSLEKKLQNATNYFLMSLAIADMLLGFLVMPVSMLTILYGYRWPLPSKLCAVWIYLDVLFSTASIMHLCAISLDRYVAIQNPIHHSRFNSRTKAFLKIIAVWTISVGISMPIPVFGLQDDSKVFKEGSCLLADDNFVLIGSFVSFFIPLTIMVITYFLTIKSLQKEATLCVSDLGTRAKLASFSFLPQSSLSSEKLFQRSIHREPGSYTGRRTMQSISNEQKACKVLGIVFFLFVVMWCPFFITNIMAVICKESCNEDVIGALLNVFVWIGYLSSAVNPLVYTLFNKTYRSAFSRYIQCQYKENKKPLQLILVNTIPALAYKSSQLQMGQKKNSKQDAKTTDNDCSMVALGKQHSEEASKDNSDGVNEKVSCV
As to the kind of experiment: Serotonin 5-HT2A radioligand binding ([3H]Ketanserin). Particulars: for Serotonin (0.1 μM) 5-HT2A, percentage inhibition of ligand binding / inhibition at 0.1 µM: compound at 0.1 μM; for inhibition at 0.1 µM: read-out: Serotonin (0.1 μM) 5-HT2A, percentage inhibition of ligand binding. How it is done:
To evaluate in radioligand binding assays the activity of compounds of the invention, human recombinant serotonin (5-Hydroxytryptamine) 5-HT2A receptor expressed in Chinese hamster ovary (CHO)-K1 cells (Bonhaus, D. et al, Br. J. Pharmacol. 115:622, 1995; Saucier, C. et al, J. Neurochem. 68:1998, 1997) in a 50 mM Tris-HCl buffer, pH 7.4, was used. Compounds of the invention were incubated with 0.5 nM [^3H]Ketanserin for 60 min. at 25° C. Non-specific binding was estimated in the presence of 1 μM Mianserin. Receptor proteins were filtered and washed, the filters were then counted to determine [^3H]Ketanserin specifically bound. Compounds were screened at 1 μM or lower, using 1% DMSO as vehicle. Biochemical assay results are presented as the percent inhibition of specific binding in Table 4.

The target in assay [4] is T4, human recombinant serotonin (5-Hydroxytryptamine) 5-HT6 receptor (Homo sapiens, UniProt P50406).
T4 construct: expressed in transfected cells; host or cells: HeLa
T4 sequence (P50406 whole entry): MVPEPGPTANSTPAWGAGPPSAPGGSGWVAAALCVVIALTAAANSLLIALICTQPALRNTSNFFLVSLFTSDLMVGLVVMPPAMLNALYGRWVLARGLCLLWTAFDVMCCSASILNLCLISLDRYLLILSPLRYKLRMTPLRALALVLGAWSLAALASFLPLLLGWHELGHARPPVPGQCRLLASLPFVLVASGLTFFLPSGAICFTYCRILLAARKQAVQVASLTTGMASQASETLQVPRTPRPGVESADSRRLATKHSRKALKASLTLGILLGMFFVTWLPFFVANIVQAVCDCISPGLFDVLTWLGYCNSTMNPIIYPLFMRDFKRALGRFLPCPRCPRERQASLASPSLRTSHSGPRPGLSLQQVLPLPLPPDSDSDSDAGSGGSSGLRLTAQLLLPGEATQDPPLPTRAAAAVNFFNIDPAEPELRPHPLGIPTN
Description: Serotonin 5-HT6 radioligand binding ([3H]LSD). Particulars: for Serotonin (0.1 μM) 5-HT6, percentage inhibition of ligand binding / inhibition at 0.1 µM: compound at 0.1 μM; for inhibition at 0.1 µM: read-out: Serotonin (0.1 μM) 5-HT6, percentage inhibition of ligand binding. How it is done: To evaluate in radioligand binding assays the activity of compounds of the invention, human recombinant serotonin (5-Hydroxytryptamine) 5-HT6 receptor expressed in human HeLa cells (Monsma, F. Jr. et al, Mol. Pharmacol. 43:320, 1993) in a modified Tris-HCl buffer (50 mM Tris-HCl, pH 7.4, 150 mM NaCl, 2 mM Ascorbic Acid, 0.001% BSA) was used. Compounds of the invention were incubated with 1.5 nM [3H]Lysergic acid diethylamide (LSD) for 120 min. at 37° C. Non-specific binding was estimated in the presence of 5 μM Serotonin (5-HT). Receptor proteins were filtered and washed, the filters were then counted to determine [3H]LSD specifically bound. Compounds were screened at 1 μM or lower, using 1% DMSO as vehicle. Biochemical assay results are presented as the percent inhibition of specific binding in Table 4.

The target of assay [5] is T5, human recombinant dopamine D2L receptor (Homo sapiens, UniProt P14416).
T5 construct: expressed in transfected cells; host or cells: CHO
T5 sequence (P14416 whole entry): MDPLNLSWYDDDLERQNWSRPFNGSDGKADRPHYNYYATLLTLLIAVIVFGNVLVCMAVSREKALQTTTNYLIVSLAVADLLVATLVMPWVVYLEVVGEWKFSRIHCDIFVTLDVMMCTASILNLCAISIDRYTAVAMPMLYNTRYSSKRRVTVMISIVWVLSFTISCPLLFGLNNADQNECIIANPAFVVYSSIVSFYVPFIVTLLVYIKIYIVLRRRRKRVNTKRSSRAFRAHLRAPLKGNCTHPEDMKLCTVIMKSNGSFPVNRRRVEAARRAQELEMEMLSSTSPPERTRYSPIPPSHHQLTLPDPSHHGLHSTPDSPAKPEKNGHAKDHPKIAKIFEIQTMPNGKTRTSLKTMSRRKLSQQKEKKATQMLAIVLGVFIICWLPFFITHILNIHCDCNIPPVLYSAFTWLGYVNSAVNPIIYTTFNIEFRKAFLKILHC
As to the kind of experiment: Dopamine D2L radioligand binding ([3H]Spiperone). Particulars: compound at 1 μM; for inhibition at 1 µM: read-out: Dopamine (1 μM) D2L, percentage inhibition of ligand binding. How it is done: To evaluate in radioligand binding assays the activity of compounds of the invention, human recombinant dopamine D2L receptor expressed in Chinese hamster ovary (CHO) cells (Grandy, D. et al, Proc. Natl. Acad. Sci. USA. 86:9762, 1989; Hayes, G. et al, Mol. Endocrinol. 6:920, 1992) in a modified Tris-HCl buffer (50 mM Tris-HCl, pH 7.4, 1.4 mM Ascorbic Acid, 0.001% BSA, 150 mM NaCl) was used. Compounds of the invention were incubated with 0.16 nM [^3H]Spiperone for 120 min. at 25° C. Non-specific binding was estimated in the presence of 10 μM Haloperidol. Receptor proteins were filtered and washed, the filters were then counted to determine [^3H]Spiperone specifically bound. Compounds were screened at 1 μM or lower, using 1% DMSO as vehicle. Biochemical assay results are presented as the percent inhibition of specific binding in Table 3.

The target in assay [6] is T6, human recombinant histamine H2 receptor (Homo sapiens, UniProt P25021).
T6 construct: expressed in transfected cells; host or cells: CHO-K1
T6 sequence (P25021 whole entry): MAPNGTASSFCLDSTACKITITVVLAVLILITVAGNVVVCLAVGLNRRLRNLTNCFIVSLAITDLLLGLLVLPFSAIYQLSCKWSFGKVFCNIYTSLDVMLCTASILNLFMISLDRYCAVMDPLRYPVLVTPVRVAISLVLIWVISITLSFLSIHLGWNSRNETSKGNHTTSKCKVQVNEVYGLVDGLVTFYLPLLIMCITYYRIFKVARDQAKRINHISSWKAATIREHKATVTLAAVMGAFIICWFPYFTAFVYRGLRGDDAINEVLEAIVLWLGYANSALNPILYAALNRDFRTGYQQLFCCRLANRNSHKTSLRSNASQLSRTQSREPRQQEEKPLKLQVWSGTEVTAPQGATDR
As to the kind of experiment: Histamine H2 radioligand binding ([125I]Aminopotentidine). Particulars: compound at 1 μM; 0.1 nM [125I]Aminopotentidine; read-out: Histamine Binding (1 μM) H2, percentage inhibition. How it is done:
To evaluate in radioligand binding assays the activity of compounds of the invention, human recombinant histamine H2 receptor expressed in Chinese hamster ovary (CHO) K1 cells (Ruat, M., Proc. Natl. Acad. Sci. USA. 87(5):1658, 1990) in a 50 mM Phosphate buffer, pH 7.4 was used. Compounds of the invention were incubated with 0.1 nM [^125I]Aminopotentidine for 120 min. at 25° C. Non-specific binding was estimated in the presence of 3 μM Tiotidine. Receptor proteins were filtered and washed, the filters were then counted to determine [^125I]Aminopotentidine specifically bound. Compounds were screened at 1 μM or lower, using 1% DMSO as vehicle. Biochemical assay results are presented as the percent inhibition of specific binding in Table 2.

Experimental findings from patent US9193728B2, “Fused tetracyclic pyrido [4,3-B] indole and pyrido [3,4-B] indole derivatives and methods of use” (Medivation Technologies, Inc., priority 2010, dated 2015) are described below.

Structures are written as SMILES.

T1 sequence (P35367 whole entry): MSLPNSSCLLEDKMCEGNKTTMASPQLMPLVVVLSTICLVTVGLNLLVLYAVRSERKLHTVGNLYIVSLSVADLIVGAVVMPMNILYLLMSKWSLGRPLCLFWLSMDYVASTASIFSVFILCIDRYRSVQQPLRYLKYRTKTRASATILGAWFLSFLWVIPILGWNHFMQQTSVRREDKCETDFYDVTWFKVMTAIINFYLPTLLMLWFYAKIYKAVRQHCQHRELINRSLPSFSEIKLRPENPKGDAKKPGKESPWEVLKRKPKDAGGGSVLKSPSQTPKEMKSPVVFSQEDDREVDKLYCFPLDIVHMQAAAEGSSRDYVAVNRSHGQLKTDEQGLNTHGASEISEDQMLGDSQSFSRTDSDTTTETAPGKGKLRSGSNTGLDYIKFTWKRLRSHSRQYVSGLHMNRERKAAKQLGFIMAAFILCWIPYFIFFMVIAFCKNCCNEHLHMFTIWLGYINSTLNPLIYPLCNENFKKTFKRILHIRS

On to `Cc1cc2c3c(c1)c1c(n3CC(C)(c3ccc(C)nc3)OC2C)CCN(C)C1` (centres unmarked) [Compound 164], for which the “Histamine Binding (0.1 μM) H1, percentage inhibition” value in assay [1] is −5%. The “Serotonin (0.1 μM) 5-HT5A, percentage inhibition of ligand binding” value in assay [2] is recorded as −22%. In addition, the “Serotonin (0.1 μM) 5-HT2A, percentage inhibition of ligand binding” value in assay [3] is recorded as 0%. Further, the “Serotonin (0.1 μM) 5-HT6, percentage inhibition of ligand binding” value in assay [4] is on record as −9%. Further, the “Dopamine (1 μM) D2L, percentage inhibition of ligand binding” value in assay [5] is 3%.

On to `Cc1cc2c3c(c1)c1c(n3CC(c3ccc(F)cc3)C2)CCN(C)C1` (centres unmarked) [Compound 3], for which the inhibition – broadly, the relative decrease from the control value, in per cent – at 0.1 µM stood at 49% in assay [1], 69% in assay [3] and 80% in assay [4]. Besides, the inhibition at 1 µM in assay [1] (compound at 1 μM, read-out: Histamine Binding (1 μM) H1, percentage inhibition) was determined as 83%; in assay [3] (compound at 1 μM, read-out: Serotonin (1 μM) 5-HT2A, percentage inhibition of ligand binding), 94%; in assay [6] it was 75%; in assay [4] (compound at 1 μM, read-out: Serotonin (1 μM) 5-HT6, percentage inhibition of ligand binding), 96%; in assay [5], 96%.

Turning to `Cc1cc2c3c(c1)c1c(n3CC(C)(c3ccncc3)OC(C)C2)CCN(C)C1` (centres unmarked) [Compound 165], the inhibition at 0.1 µM in assay [1] stood at 37%; in assay [2] it was 16%; in assay [3], 12%; in assay [4] it was 10%. Besides, the inhibition at 1 µM in assay [5] was found to be 10%.

In the case of `Cc1cc2c3c(c1)c1c(n3CC(C)(c3ccc(C)nc3)OC2C)CCN(C)C1` (centres unmarked) [Compound 161], the “Histamine Binding (0.1 μM) H1, percentage inhibition” value in assay [1] was determined as 13%. Moreover, in assay [2], the “Serotonin (0.1 μM) 5-HT5A, percentage inhibition of ligand binding” value was 4%. The “Serotonin (0.1 μM) 5-HT2A, percentage inhibition of ligand binding” value in assay [3] was −2%. Moreover, in assay [4], the “Serotonin (0.1 μM) 5-HT6, percentage inhibition of ligand binding” value is listed as −8%. In addition, in assay [5], the “Dopamine (1 μM) D2L, percentage inhibition of ligand binding” value is reported as 10%.

With `Cc1cc2c3c(c1)c1c(n3C[C@@](C)(c3ccncc3)O[C@H]2C)CCN(C)C1` [Compound 162], the inhibition at 0.1 µM in assay [1] is 25%; in assay [2], 16%; in assay [3], 7%; in assay [4], -8%. For the same compound, the inhibition at 1 µM in assay [5] was found to be 11%.

`Cc1cc2c3c(c1)c1c(n3C[C@](C)(c3ccncc3)O[C@H]2C)CCN(C)C1` [Compound 163]: the inhibition at 0.1 µM in assay [1] came out at 11%; in assay [2], 10%; in assay [3], 3%; in assay [4], 8%. In addition, the inhibition at 1 µM in assay [5] was found to be 15%.

For the compound `Cc1cc2c3c(c1)c1c(n3CC(C)(c3ccc(C)nc3)OC(C)C2)CCN(C)C1` (centres unmarked) [Compound 160], the inhibition at 0.1 µM in assay [1] was 0%; in assay [2] it was 2%; in assay [3], -4%; in assay [4], -10%. Also, in assay [5], the inhibition at 1 µM amounted to 7%.
